{
  "source": "paper PMC12186298",
  "about": "“Phase 1 clinical trial of eneboparatide, a novel PTH receptor 1 agonist” (Endocrine Connections, 2025)",
  "key": {"[1]": {"assay": "Plasma pharmacokinetics, single ascending dose (Part A)", "type": "in vivo, human", "details": "for AUC(0–∞) / Cmax / Tmax: Part A SAD; for Cmax: immunoaffinity LC-MS/MS, mean ± SD", "procedure": "(§1) Seven sequential cohorts were included in Part A. The first cohort was single-blind and included four subjects, of which three subjects were randomized to receive 5 μg eneboparatide and one subject was randomized to receive placebo. […] Subjects in Part A were admitted to the phase 1 study centre on day 1 and received the study drug at the clinical site on day 1 as a single, subcutaneous abdominal injection in the morning. They were discharged on day 4 and were asked to return for a follow-up (FU) visit on day 5–8.\nPlasma samples were collected pre-dose and at scheduled time points up to 6 h post-dose on day 1 (Parts A and B) and day 14 (Part B). The analysis of eneboparatide in plasma samples was performed at QPS (The Netherlands) using a hybrid immunoaffinity liquid chromatography–mass spectrometry/mass spectrometry (LC-MS/MS) method, with a validated lower limit of quantification (LLOQ) of 50 pg/mL."}, "[2]": {"tested_on": "healthy subjects", "assay": "Pharmacodynamics (serum calcium, phosphorus, endogenous PTH, urine, bone markers), Part B MAD", "type": "in vivo, human", "procedure": "(§2) Blood samples were taken on day 1 at pre-dose, at several time points post-dose up to day 4 and at FU (Part A), on day 1–14 (pre-dose), and day 15–17 and at FU (Part B) for the analysis of total sCa, albumin-adjusted serum calcium (ADsCa), and sPh. These parameters were also measured on day 1, 7 and 14 at several time points post-dose. Samples for serum creatinine were taken at predefined time points to allow for calculation of fractional excretion of calcium (FECa). Endogenous serum PTH(1–84) was measured on day 1 (pre-dose and 12 h post-dose), day 2–4 and at FU (Part A), on pre-dose on day 1, 7, and 14 and on day 15–17 and FU (Part B). In Part B, additional blood samples were taken on day 1, day 14 and at FU for the analysis of serum bone turnover biomarkers, including carboxy-terminal telopeptide of type I collagen (s-CTx), and procollagen type 1 amino-terminal propeptide (P1NP).\n(§3) Urine collection was performed over 24 h for the analysis of calcium and creatinine on day 1–3 and at FU (Part A) and day 1, day 7, day 14 and at FU (Part B). FECa (%) was calculated by the formula: FECa = (urine calcium/serum calcium)/(urine creatinine/serum creatinine)."}, "[3]": {"tested_on": "healthy subjects", "assay": "Pharmacodynamics (serum calcium, phosphorus, endogenous PTH, urine), Part A SAD", "type": "in vivo, human", "procedure": "as §1, §2, §3"}, "[4]": {"tested_on": "animal models of HP", "details": "cited from earlier work"}},
  "note": "Peptide text beside a SMILES is read from it.",
  "data": [
    {"smiles": "CC[C@H](C)[C@H](NC(=O)[C@H](CCC(=O)O)NC(=O)[C@H](C)NC(=O)[C@@H](NC(=O)[C@H](Cc1c[nH]cn1)NC(=O)[C@@H](NC(=O)[C@H](CCC(=O)O)NC(=O)[C@H](C)NC(=O)[C@@H](NC(=O)[C@H](CC(C)C)NC(=O)[C@H](CCCCN)NC(=O)[C@H](Cc1c[nH]cn1)NC(=O)[C@H](CC(C)C)NC(=O)[C@H](Cc1ccccc1)NC(=O)[C@H](C)NC(=O)[C@H](CCCNC(=N)N)NC(=O)[C@H](CCCNC(=N)N)NC(=O)[C@H](CCCNC(=N)N)NC(=O)[C@H](C)NC(=O)[C@H](CC(=O)O)NC(=O)[C@H](CCC(N)=O)NC(=O)[C@@H](NC(=O)[C@H](Cc1c[nH]c2ccccc12)NC(=O)[C@H](CCCCN)NC(=O)[C@H](C)NC(=O)[C@H](CCCNC(=N)N)NC(=O)[C@H](CCC(N)=O)NC(=O)[C@H](Cc1c[nH]cn1)NC(=O)[C@H](CCSC)NC(=O)[C@H](CC(C)C)NC(=O)[C@H](CCC(N)=O)NC(=O)[C@@H](NC(=O)[C@H](CCC(=O)O)NC(=O)[C@H](C)NC(=O)[C@@H](NC(=O)[C@H](C)N)C(C)C)[C@@H](C)CC)[C@@H](C)CC)[C@@H](C)CC)[C@@H](C)CC)[C@@H](C)O)C(=O)O", "note": "[eneboparatide] (H-AVAEIQLMHQRAKWIQDARRRAFLHKLIAEIHTAEI-OH; N-terminus and C-terminus assumed)", "values": [
      {"measurement": "AUC(0–∞)", "setting": "[1]; single sc 5 μg, n = 2, mean ± SD", "value": "0.399 ± 0.032", "unit": "ng·h/mL"},
      {"measurement": "Cmax", "setting": "[1]; single sc 5 μg, n = 2, plasma", "value": "6.82 ± 2.19", "unit": "ng/mL"},
      {"measurement": "AUC(0–∞)", "setting": "[1]; single sc 10 μg, n = 4, mean ± SD", "value": "5.20 ± 3.38", "unit": "ng·h/mL"},
      {"measurement": "Cmax", "setting": "[1]; single sc 10 μg, n = 4, plasma", "value": "11.4 ± 4.32", "unit": "ng/mL"},
      {"measurement": "AUC(0–∞)", "setting": "[1]; single sc 20 μg, n = 6, mean ± SD", "value": "9.55 ± 4.12", "unit": "ng·h/mL"},
      {"measurement": "Cmax", "setting": "[1]; single sc 20 μg, n = 6, plasma", "value": "24.1 ± 8.18", "unit": "ng/mL"},
      {"measurement": "AUC(0–∞)", "setting": "[1]; single sc 40 μg, n = 2, mean ± SD", "value": "10.4 ± 13.4 (n = 2) ng·h/mL"},
      {"measurement": "Cmax", "setting": "[1]; single sc 40 μg, n = 3, plasma", "value": "26.3 ± 4.79", "unit": "ng/mL"},
      {"measurement": "AUC(0–∞)", "setting": "[1]; single sc 60 μg, n = 6, mean ± SD", "value": "16.8 ± 14.7", "unit": "ng·h/mL"},
      {"measurement": "Cmax", "setting": "[1]; single sc 60 μg, n = 6, plasma", "value": "28.5 ± 10.8", "unit": "ng/mL"},
      {"measurement": "AUC(0–∞)", "setting": "[1]; single sc 90 μg, n = 6, mean ± SD", "value": "31.7 ± 12.5", "unit": "ng·h/mL"},
      {"measurement": "Cmax", "setting": "[1]; single sc 90 μg, n = 6, plasma", "value": "37.5 ± 11.6", "unit": "ng/mL"},
      {"measurement": "AUC(0–∞)", "setting": "[1]; single sc 120 μg, n = 6, mean ± SD", "value": "26.1 ± 16.4", "unit": "ng·h/mL"},
      {"measurement": "Cmax", "setting": "[1]; single sc 120 μg, n = 6, plasma", "value": "57.4 ± 28.7", "unit": "ng/mL"},
      {"measurement": "median time to maximum plasma concentration", "setting": "[1]; Parts A and B, sc, all doses", "value": "5 to 20", "unit": "min"},
      {"measurement": "detectability of eneboparatide in the circulation after administration", "setting": "[1]; SAD, single sc 10 to 120 μg, LLOQ 50 pg/mL", "value": "almost undetectable beyond 2 h after administration"},
      {"measurement": "Tmax", "setting": "[1]; human, plasma, 5 ug, single sc 5 μg, n = 2, median", "value": 15, "unit": "min"},
      {"measurement": "Tmax", "setting": "[1]; human, plasma, 10 ug, single sc 10 μg, n = 4, median", "value": 13.2, "unit": "min"},
      {"measurement": "Tmax", "setting": "[1]; human, plasma, 20 ug, single sc 20 μg, n = 6, median", "value": 6, "unit": "min"},
      {"measurement": "Tmax", "setting": "[1]; human, plasma, 40 ug, single sc 40 μg, n = 3, median", "value": 4.8, "unit": "min"},
      {"measurement": "Tmax", "setting": "[1]; human, plasma, 60 ug, single sc 60 μg, n = 6, median", "value": 10.2, "unit": "min"},
      {"measurement": "Tmax", "setting": "[1]; human, plasma, 90 ug, single sc 90 μg, n = 6, median", "value": 19.8, "unit": "min"},
      {"measurement": "Tmax", "setting": "[1]; human, plasma, 120 ug, single sc 120 μg, n = 6, median", "value": 19.8, "unit": "min"},
      {"measurement": "half-life", "setting": "[1]; human, plasma, normal subjects, sc, read-out: circulating half-life", "value": "< 120", "unit": "min"},
      {"measurement": "endogenous sPTH compared to placebo", "setting": "[2]", "value": "rapidly and dose-dependently declined"},
      {"measurement": "time for ADsCa to return to near baseline after cessation of treatment", "setting": "[2]; 80 μg dose", "value": "~3", "unit": "days"},
      {"measurement": "subjects with transient hypercalcaemia in whom urinary excretion of calcium remained normal", "setting": "[2]; 80 μg/d", "value": "five of the six"},
      {"measurement": "mean 24 h-uCa", "setting": "[2]; 14 days of treatment", "value": "not associated with an increase"},
      {"measurement": "time mean sPh remained lower compared to placebo", "setting": "[2]; after 14 days of treatment, high-dose groups (above 40 μg/day)", "value": "12 to 20", "unit": "h"},
      {"measurement": "FECa", "setting": "[2]; all doses", "value": "below 1.5%"},
      {"measurement": "repeated sCa measurements throughout 24 h post-dosing", "setting": "[2]; days 7 and 14, all doses", "value": "stable values with little variation"},
      {"measurement": "time for ADsCa to return to near baseline after cessation of treatment", "setting": "[2]; doses up to 60 μg", "value": "approximately 2 days"},
      {"measurement": "time to stable ADsCa levels after the first administration", "setting": "[2]; doses up to 60 μg", "value": "approximately 2 days"},
      {"measurement": "serum levels of P1NP and CTX", "setting": "[2]; increasing doses for 14 consecutive days", "value": "did not alter"},
      {"measurement": "urinary excretion of calcium or phosphorus", "setting": "[3]; increasing single doses", "value": "no apparent dose-related changes"},
      {"measurement": "duration of elevation of ADsCa post-dose vs placebo", "setting": "[3]; single sc 20 μg, moderate but persistent elevation", "value": "up to 18 h"},
      {"measurement": "effect on physiological decline in ADsCa", "setting": "[3]; single sc 5 and 10 μg", "value": "blunted this physiological decline in ADsCa during the first 6 h post-dosing"},
      {"measurement": "persistence of dose-dependent decrease of endogenous sPTH(1–84)", "setting": "[3]; single sc 20–120 μg", "value": "24 to 72", "unit": "h"},
      {"measurement": "serum calcium, urinary calcium excretion and bone resorption biomarkers", "setting": "[4]", "value": "robust and sustained increases in serum calcium without increasing urinary calcium excretion or bone resorption biomarkers"}
    ]}
  ]
}
